From US20190070174A1, “METHODS OF TREATING NEURODEGENERATIVE DISEASES” (priority 2016, published 2019)

Tests used:
[1] = tested on: ATXN3Q81.Luc fusion protein; experiment: Confirmation dose-response, ATXN3 levels by immunoblotting; assay type: cell-based, human; conditions: 293.ATXN3Q81Luc cells
Source text: Full-length ATXN3 (Accession number ABS29269) carrying either a normal or an expanded polyQ tract (Q26 or Q81) was subcloned in the vector pcDNA3.1 FLAG.firefly Luciferase. The mammalian expression plasmids pcDNA.FLAG.ATXN3Q26.Luc and pcDNA.FLAG.ATXN3Q81.Luc were confirmed by sequencing and shown to express N-terminal FLAG-tagged ATXN3Q26 or ATXN3Q81 fused with firefly Luciferase (Luc), respectively. These neomycin-resistant plasmids were transfected into HEK293 cells using Lipofectamine LTX (Invitrogen) during four hours, after which medium was replaced by growth medium (DMEM/10% fetal bovine serum (FBS)/1% penicillin/streptomycin (PS)). […] After one month of passage in selection medium, stably transfected clones for each cell line (293.ATXN3Q26Luc and 293.ATXN3Q81Luc) were pooled and frozen in liquid nitrogen. Stably transfected cell lines were maintained in selection medium except during treatment with specific compounds that were diluted in growth medium.
Protein lysates from cell cultures, mouse brain slices or mouse brains were obtained by lysis in RIPA buffer containing protease inhibitors (Complete, Roche Diagnostics), followed by sonication and centrifugation. The supernatants (soluble protein fractions) were collected, total protein concentration was determined using the BCA method (Pierce) and then stored at −80° C. Total proteins (50 μg from cell and slice cultures or 75 μg from brain regions of mice) were resolved in 10% SDS-PAGE gels, and corresponding PVDF membranes were incubated overnight at 4° C. with primary antibodies: mouse anti-ATXN3 (1H9) (1:2000; MAB5360, Millipore), goat anti-Luciferase (1:500; G7451, Promega), mouse anti-FLAG (M5) (1:500; IB13091, Sigma), rabbit anti-LC3 (1:500; PM036, MBL International Corporation), mouse anti-HSP90β (1:1000; ADI-SPA842, Enzo Life Sciences), rabbit anti-HSP90α (1:1000; ab2928, Abcam), mouse anti-HSP70 (1:500; SPA810, Enzo Life Sciences), rabbit anti-HSP40 (1:1000; #4868, Cell Signaling), rabbit anti-HSP25 (1:1000; ADI-SPA801, Enzo Life Sciences), rabbit anti-HSF1 (1:1000, ADI-SPA-901, Enzo Life Sciences), rabbit anti-ubiquitin (1:1000, Z 0458, Dako), rabbit anti-RAD23A (1:5000; TA307264, Origene), rabbit anti-RAD23B (1:2000; A302-306A, Bethyl Labs), rabbit anti-α-Tubulin (11H10) (1:10000; #2125, Cell Signaling), and mouse anti-GAPDH (1:1000; MAB374, Millipore). Pellets corresponding to insoluble protein fractions were resuspended in 100 μL of Laemmli buffer 2× and boiled for 10 min. Insoluble proteins were then quantified, and 100 μg were loaded in a filter trap assay apparatus and transferred to a nitrocellulose membrane (0.45 μm pore) that was incubated overnight with rabbit anti-MJD antibody (1:5000) at 4° C. Bound primary antibodies were visualized by incubation with a peroxidase-conjugated anti-mouse or anti-rabbit secondary antibody (1:10000; Jackson Immuno Research Laboratories) followed by treatment with the ECL-plus reagent (Western Lighting, PerkinElmer) and exposure to autoradiography films. Band intensity was quantified by densitometry using ImageJ.

human mutant ATXN3Q84 = assay type: cell-based; conditions: sagittal brain slices treated for 48 hours, cerebellum and brainstem
Procedure: (§1) Nine slices per brain were used in each set of cultures. […] After 48 hours of incubation at 37° C./5% CO2, brain slices were assessed for ATXN3 levels by immunoblotting or immunofluorescence and for cell viability. For immunoblotting, each slice was macrodissected into separate cerebellum and brainstem that were immediately frozen at −80° C. in 80 μL and 150 μL of cold RIPA buffer containing protease inhibitors (Complete, Roche Diagnostics), respectively. Cell viability was assessed on treated slices by incubation in propidium iodide (PI) 1 μg/mL in culture medium for 1 hour. Slices were then mounted in PROLONG Gold Antifade Reagent (Invitrogen) and imaged using a FV500 Olympus confocal microscope.
Protein lysates from cell cultures, mouse brain slices or mouse brains were obtained by lysis in RIPA buffer containing protease inhibitors (Complete, Roche Diagnostics), followed by sonication and centrifugation. The supernatants (soluble protein fractions) were collected, total protein concentration was determined using the BCA method (Pierce) and then stored at −80° C. […] Pellets corresponding to insoluble protein fractions were resuspended in 100 μL of Laemmli buffer 2× and boiled for 10 min. Insoluble proteins were then quantified, and 100 μg were loaded in a filter trap assay apparatus and transferred to a nitrocellulose membrane (0.45 μm pore) that was incubated overnight with rabbit anti-MJD antibody (1:5000) at 4° C. Bound primary antibodies were visualized by incubation with a peroxidase-conjugated anti-mouse or anti-rabbit secondary antibody (1:10000; Jackson Immuno Research Laboratories) followed by treatment with the ECL-plus reagent (Western Lighting, PerkinElmer) and exposure to autoradiography films. Band intensity was quantified by densitometry using ImageJ.
To assess the efficacy of the five compounds to reduce ATXN3 levels in the mammalian brain, secondary screens in organotypic brain slice cultures derived from hemizygous YACMJD84.2 (Q84) transgenic mice were performed.

mouse Atxn3 = experiment: Organotypic brain slice cultures from YACMJD84.2 (Q84) mice, immunoblotting; assay type: cell-based; conditions: sagittal brain slices treated for 48 hours, cerebellum and brainstem
Procedure: as §1
Protein lysates from cell cultures, mouse brain slices or mouse brains were obtained by lysis in RIPA buffer containing protease inhibitors (Complete, Roche Diagnostics), followed by sonication and centrifugation. The supernatants (soluble protein fractions) were collected, total protein concentration was determined using the BCA method (Pierce) and then stored at −80° C. […] Insoluble proteins were then quantified, and 100 μg were loaded in a filter trap assay apparatus and transferred to a nitrocellulose membrane (0.45 μm pore) that was incubated overnight with rabbit anti-MJD antibody (1:5000) at 4° C. […] Band intensity was quantified by densitometry using ImageJ. […]

Compound | levels of ATXN3Q81.Luc fusion protein [1] | levels of human mutant ATXN3Q84 (human mutant ATXN3Q84) | levels of mouse Atxn3 (mouse Atxn3)
Cc1c(C(=O)NN2CCCCC2)nn(-c2ccc(Cl)cc2Cl)c1-c1ccc(I)cc1 [AM251] | confirmed to decrease levels of ATXN3Q81.Luc fusion protein |  | 
Clc1ccccc1C(c1ccccc1)(c1ccccc1)n1ccnc1 [clotrimazole] | confirmed to decrease levels of ATXN3Q81.Luc fusion protein | did not alter ATXN3 levels | 
CC#C[C@]1(O)CC[C@H]2[C@@H]3CCC4=CC(=O)CCC4=C3[C@@H](c3ccc(N(C)C)cc3)C[C@@]21C [mifepristone] | confirmed to decrease levels of ATXN3Q81.Luc fusion protein | did not alter ATXN3 levels | 
CC[C@@H](C(=O)[C@@H](C)[C@@H](O)[C@H](C)[C@@H]1O[C@@H]([C@@H](CC)C(=O)O)CC[C@@H]1C)[C@H]1O[C@]2(C=C[C@@H](O)[C@]3(CC[C@@](C)([C@H]4CC[C@](O)(CC)[C@H](C)O4)O3)O2)[C@H](C)C[C@@H]1C [salinomycin sodium] | confirmed to decrease levels of ATXN3Q81.Luc fusion protein | reduced levels | reduced levels
